Reference: patent US10012641B2, “G-protein-coupled-receptor-22-transformed cell lines and methods of use thereof to identify binding compounds” (LIBRAMEN NATURALS INC., priority 2014, dated 2018)
Several values for one entry are separate records, joined by “and”; a condition that tells them apart may be missing. Equal values may be shown once. Entries after “also recorded” stand apart in the source; their conditions may differ.

Key:
GPCR22 (G1) receptor = target: T1, GPCR22 (G1) receptor (Homo sapiens, UniProt Q99680, C425R); experiment: Intracellular cAMP in 1321N1 cell line transfected with GPCR22 (G1) receptor; assay type: cell-based; details: increasing concentrations of guanosine, absence and presence of PTX (200 ng/ml, 16 h); FIG. 7e
T1 construct: A full length cDNA clone of human GPCR22 was provided by Origene Technologies; expressed in transfected cells; host or cells: 1321N1 human astrocytoma cells

GPCR22 [1] = target: T2, GPCR22 (Homo sapiens, UniProt Q99680, C425R); experiment: Erk 1/2 and Akt phosphorylation by guanosine in 1321N1 human astrocytoma cells transfected with GPCR22 DNA (Western Blot); assay type: cell-based; details: guanosine 300 μM, compared to non-GPCR22-transfected 1321N1 cells
T2 construct: A full length cDNA clone of human GPCR22 was provided by Origene Technologies; host or cells: 1321N1 human astrocytoma cells, pCMV vector, transient
Protocol: A full length cDNA clone of human GPCR22 was provided by Origene Technologies. Transient expression in the 1321N1 cell line was performed using a pCMV expression vector. cDNA fragments present in an expression vector (pCMV) is located downstream of a transcriptional promoter capable of driving heterologous gene expression in a variety of mammalian cells. 1321N1 cell lines were transiently transfected with hGPCR22 cloned into pCMV expression vectors (Invitrogen). DNA transfection was performed by lipofection using Lipofectamine (Life Technologies). Twenty-four hours after transfection, the cells were lysed and assayed. RT-PCR analysis using GPCR22 forward: CTCATCTGCTGTTTCCACGA (SEQ. ID NO: 5) and GPCR22 reverse CGGATGTTAAGAGCCTGGAG (SEQ. ID NO: 6), was used to confirm the transfection of GPCR22 (G1) (labelled “1321N1 G1-pCMV Trans”) into 1321N1 cells as shown in FIG. 6a and evidenced by the band at 411 bp. Furthermore, the expression of GPCR22 (labelled “1321N1 G1-pCMV Trans”) in 1321N1 cells as compared to non-G1 transfected cells (labelled “1321N1”) was confirmed by Western Blot analysis using a rabbit polyclonal anti-GPCR22 antibody (NovateinBio, SH-A12465, MA, USA), as shown in FIG. 6b.

GPCR22 [2] = target: T3, GPCR22 (Rattus norvegicus, UniProt D4A3U0); experiment: Fluo-4 AM imaging of intracellular Ca2+ in GPCR22-transfected S2 cells; assay type: cell-based; design: expressed in transfected cells; host or cells: Drosophila Schneider 2 (S2) cells, pMT-V5-HisA vector, CuSO4 induction
Protocol: (§1) Fluo-4 AM calcium imaging was used to visualize intracellular calcium concentration in the GPRC22-transfected and non-transfected S2 cells. A 2.5 mM stock solution of Fluo-4 Am dye (molecular Probes, Burlington, ON) was prepared in DMSO and 20% Pluronic F-127 and used to within a week. The S2 cell preparations were incubated with a final concentration of 5 μM fluo-4AM and 0.02% Pluronic F-127 in 1 ml S2 culture medium for 20 min at room temperature, then washed to allow for full de-esterification of AM esters. Imaging was carried out on an upright Nikon Eclipse FN-S2N upright fluorescence microscope using 10×/40× objectives with a filter to excite Fluo-4, a dye at 488 nm wavelength (peak excitation=494 nm and peak emission=516 nm) using a Lambda DG-4 illuminator (Sutter Instrument Co., Novato, Calif., USA). Images were captured using a Quantem 512SC camera with a frame rate of 5-10 frames per second and Nikon-NIS Elements, advanced research, imaging software. Intracellular calcium concentration was created in the Nikon-NIS elements program using regions of interest (ROIs) per each experiment. ROIs were selected free hand and encompassed the cell body to be analyzed. The ROIs were tracked and the average pixel intensity was measured in that region for the duration of the recording. These measurements were then exported to Excel and Clampfit for further analysis of frequency and amplitude. Intracellular calcium concentration of S2 cells was monitored at room temperature. 20-30 S2 cells were calculated to determine the average overall fluorescence signal intracellular calcium concentration. The fluorescence intensity was presented as the ratio F1/F0 in which the raw fluorescence intensity signals of a region of interest (ROI) was compared to the first fluorescence signal in that ROI throughout the recording. The Wilcoxon matched pairs t-test was used on two samples with equal variances to determine statistically significant differences at P=0.05. In each set of experiments, the exposure protocols for control and test conditions were identical.

non-transfected S2 cells [3] = experiment: Fluo-4 AM imaging of intracellular Ca2+ in non-transfected S2 cells; assay type: cell-based, Drosophila; details: guanosine versus vehicle, FIGS. 12a, 12d
Protocol: as §1, with “Intracellular calcium concentration was created in the Nikon-NIS elements program using regions of interest (ROIs) per each experiment.” left out, “These measurements were then exported to Excel and Clampfit for further analysis of frequency and amplitude.” left out, “The fluorescence intensity was presented as the ratio F1/F0 in which the raw fluorescence intensity signals of a region of interest (ROI) was compared to the first fluorescence signal in that ROI throughout the recording. The Wilcoxon matched pairs t-test was used on two samples with equal variances to determine statistically significant differences at P=0.05. In each set of experiments, the exposure protocols for control and test conditions were identical.” left out

non-transfected S2 cells [4] = experiment: Actinomycin D-induced apoptosis, Caspase-3 flow cytometry, non-transfected S2 cells; assay type: cell-based, Drosophila; details: 100 μM guanosine before 1 μM actinomycin D
Protocol: (§2) In order to determine whether guanosine produced any anti-apoptotic effects through a GPCR22-mediated mechanism, the effect of guanosine on apoptosis in GPCR22-transfected S2 cells was measured using flow cytometry techniques. Briefly, S2 cells were maintained in Schneider's Drosophila medium (GIBCO) supplemented with 10% heat-inactivated fetal calf serum, penicillin and streptomycin. For induction of apoptosis both receptor-transfected and non-transfected S2 cells were incubated in 1 μM actinomycin D (Sigma) for 6 hours at 25° C. Prior to the induction of apoptosis, to the S2 culture medium were either added 100 μM guanosine or the same amount of vehicle. After a 48 hr incubation with guanosine or vehicle, the cells were fixed with 4% PFA for fluorescent-immunostaining. The primary antibody Caspase-3 (10 μg/ml; R&D systems AF835) was incubated at room temperature for 1.5 hr and the secondary antibody (donkey anti rabbit Alexa488 (1:1800) was incubated at room temperature for 1 hr. After rinsing with PBS cells were re-suspend with “PBS+0.5% BSA” solution for flow cytometry reading using a 8 colour, […] (488 nm, 633 nm, 405 nm) FACS (Canto) machine.

GPCR22 [5] = target: T3, GPCR22; experiment: Guanosine binding in rat astrocytes after inhibition of GPCR22 by siRNA; design: endogenous in cells; host or cells: cultured rat (brain) astrocytes; details: astrocytes with GPCR22 inhibited by siRNA; data not shown
Protocol: Transient transfection of siRNAs for the rGPCR22 gene on rat cultured astrocytes and cell extracts were assayed for gene silencing 24 h after transfection was carried out. siRNA duplex specific for the rGPCR22 receptor were designed and chemically synthesized (www.Dharma.com), as well as their non specific control (NSC). Transfection of siRNAs for targeting endogenous genes was carried out using Oligofectamine (Invitrogen, Life Technologies) according to the manufacturer's instruction. Briefly, astrocytes at 60-70% confluence were cultured for 1 day in culture medium without antibiotics. 10 ml siRNA (20 mM) (Dharmacon research, Inc.) were diluted in 175 ml optimem for 5 min at room temperature. In the meantime, 3 ml oligofectamine was mixed in 15 ml optimem for 5 min. RNA interference was performed by mixing diluted oligofectamine and siRNA for 30 min at room temperature and was then added to the cells. The same scheme was performed on other samples using a siRNA-scrambled (NSP=non specific control). Cells were incubated at 37° C. for 24 hours. Twenty-four hours after transfection, the cells were lysed and assayed for gene silencing. The effect of GPCR22 silencing on MAPK and AKT phosphorylation, and cAMP assay was analysed. […]

GPCR22 [6] = target: T3, GPCR22; experiment: [3H]-guanosine binding to GPCR22 protein extracted from transfected S2 cells, competition with cold guanosine; design: expressed in transfected cells; host or cells: Drosophila Schneider 2 (S2) cells, pMT-V5-HisA vector, CuSO4 induction; details: 10 nM [3H]-guanosine, 25° C., 75 min, FIG. 14
Protocol: The ability of GPCR22 receptor to bind to guanosine was assessed by performing competitive binding studies in the presence of cold guanosine. GPCR22 protein extracted from transfected […] cells were used in performing receptor-binding studies. The binding of [^3H]-guanosine (“hot” guanosine) to GPCR22 receptor was performed in triplicate in a final volume of 125 μl assay buffer (pH 7.4, 50 mM Tris-HCl, 1 mM EDTA, 5 mM MgCl2, 0.1 mM DTT, 0.1 mM PMSF, 100 mg/ml bacitracin and 5 mg/ml soybean trypsin inhibitor) containing 10 nM [^3H]-guanosine and the following concentrations of unlabeled guanosine (“cold” guanosine) (0.01 μM, 0.1 μM, 1.0 μM, 10 μM, 100 μM and 1 mM) and 50 ug of protein. The incubation of the GPCR22 receptor protein with ligands was carried out at 25° C. for 75 min. At the end of the incubation period, the unbound ligands were separated by vacuum filtration through Whatman GF/B filters. The bound ligand-protein was further washed 3 times with 5 ml of Tris-EDTA buffer, pH 7.4 (50 mM Tris-HCl, 1 mM EDTA). The radioactive filters were placed in plastic counting vials containing 4 ml of scintillation fluid, equilibrated overnight in a dark environment and counted the next day in a Beckman LS5000 liquid scintillation counter Model 1780. Non-specific binding was also calculated by the addition of excess guanosine (10 mM). […]

GPCR22 [7] = target: T3, GPCR22; experiment: Erk 1/2 and Akt phosphorylation by guanosine in cultured rat astrocytes treated with siRNA for GPCR22 (Western Blot); assay type: cell-based; design: endogenous in cells; host or cells: cultured rat (brain) astrocytes
Protocol: Transient transfection of siRNAs for the rGPCR22 gene on rat cultured astrocytes and cell extracts were assayed for gene silencing 24 h after transfection was carried out. siRNA duplex specific for the rGPCR22 receptor were designed and chemically synthesized (www.Dharma.com), as well as their non specific control (NSC). Transfection of siRNAs for targeting endogenous genes was carried out using Oligofectamine (Invitrogen, Life Technologies) according to the manufacturer's instruction. Briefly, astrocytes at 60-70% confluence were cultured for 1 day in culture medium without antibiotics. 10 ml siRNA (20 mM) (Dharmacon research, Inc.) were diluted in 175 ml optimem for 5 min at room temperature. In the meantime, 3 ml oligofectamine was mixed in 15 ml optimem for 5 min. RNA interference was performed by mixing diluted oligofectamine and siRNA for 30 min at room temperature and was then added to the cells. The same scheme was performed on other samples using a siRNA-scrambled (NSP=non specific control). Cells were incubated at 37° C. for 24 hours. Twenty-four hours after transfection, the cells were lysed and assayed for gene silencing. The effect of GPCR22 silencing on MAPK and AKT phosphorylation, and cAMP assay was analysed.

[8] = tested on: GPCR22-transfected S2 cells; experiment: Actinomycin D-induced apoptosis, Caspase-3 flow cytometry, GPCR22-transfected S2 cells; assay type: cell-based, Drosophila; details: 100 μM guanosine before 1 μM actinomycin D; FIGS. 11a-d
Protocol: as §2

T3 sequence (D4A3U0 whole entry): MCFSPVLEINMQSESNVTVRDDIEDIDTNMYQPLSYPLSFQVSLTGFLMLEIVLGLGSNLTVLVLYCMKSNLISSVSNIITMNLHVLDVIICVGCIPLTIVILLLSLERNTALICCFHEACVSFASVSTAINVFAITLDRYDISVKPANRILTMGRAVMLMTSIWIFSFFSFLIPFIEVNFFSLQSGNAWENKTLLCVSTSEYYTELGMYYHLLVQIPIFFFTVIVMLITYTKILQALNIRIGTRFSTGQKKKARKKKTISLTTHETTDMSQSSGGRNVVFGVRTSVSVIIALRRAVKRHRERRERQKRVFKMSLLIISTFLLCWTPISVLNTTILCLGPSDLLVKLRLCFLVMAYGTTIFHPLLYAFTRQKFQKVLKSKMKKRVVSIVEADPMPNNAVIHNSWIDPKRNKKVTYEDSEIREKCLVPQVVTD
T2 sequence (Q99680 whole entry C425R): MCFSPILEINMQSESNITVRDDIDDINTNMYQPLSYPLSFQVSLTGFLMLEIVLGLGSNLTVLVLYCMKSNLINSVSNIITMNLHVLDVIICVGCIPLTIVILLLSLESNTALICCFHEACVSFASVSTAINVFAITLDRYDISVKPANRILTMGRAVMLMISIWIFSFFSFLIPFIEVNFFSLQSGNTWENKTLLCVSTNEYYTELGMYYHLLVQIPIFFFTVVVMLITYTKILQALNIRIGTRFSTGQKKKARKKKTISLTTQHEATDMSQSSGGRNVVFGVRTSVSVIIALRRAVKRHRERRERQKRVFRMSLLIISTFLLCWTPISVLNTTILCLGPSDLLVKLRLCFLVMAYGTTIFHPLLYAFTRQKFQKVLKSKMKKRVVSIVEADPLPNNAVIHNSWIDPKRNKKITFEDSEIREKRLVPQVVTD
T1 sequence (Q99680 whole entry C425R): as above

In the case of `Nc1nc2c(ncn2[C@@H]2O[C@H](CO)[C@@H](O)[C@H]2O)c(=O)[nH]1` [guanosine], the “intracellular cAMP levels” value (GPCR22 (G1) receptor) is reported as “increase intracellular cAMP levels”, the “phosphorylation of Erk 1/2” value (GPCR22 [1]; FIG. 7c) is reported as “resulted in phosphorylation of both Erk 1/2 and Akt” and the “phosphorylation of Akt” value (GPCR22 [1]; FIG. 7d) is reported as “resulted in phosphorylation of both Erk 1/2 and Akt”. For the same compound, the “time of intracellular calcium increase after adding guanosine” value (GPCR22 [2]; GPCR22-transfected S2 cells) was no more than 2 min, the “intracellular Ca^2+ level” value (GPCR22 [2]; GPCR22-transfected S2 cells, FIGS. 12b, 12c, 15) was “elevate intracellular Ca^2+ levels; also recorded: significantly increases intracellular calcium level” and the “guanosine dose giving peak intracellular calcium increase” value (GPCR22 [2]; GPCR22-transfected S2 cells, low dose 0.1 μM to 10 μM, FIG. 13g) was 5 µM. The “intracellular Ca^2+” value (GPCR22 [2]; guanosine 25 μM, time point 1 min, FIG. 13e) was “significant increase”, the “intracellular Ca^2+ fluorescence” value (GPCR22 [2]; guanosine 100 μM, imaging at 0, 0.5, 1 and 2 min, FIGS. 13a-d) was “fast and transient fluorescence increase” and the “intracellular Ca^2+ response across high doses” value (GPCR22 [2]; high dose guanosine 25 μM-400 μM, time point 1 min, FIG. 13f) was “no significant difference”. For the same compound, the “intracellular Ca^2+ level” value (non-transfected S2 cells [3]) was “does not induce; also recorded: had no effect”, the “protection from actinomycine-induced apoptotic cell death (Caspase-3)” value (non-transfected S2 cells [4]) was “had no effect” and the guanosine binding (GPCR22 [5]) was “abolish”. For the same compound, the Bmax (GPCR22 [6]) was 1.05±0.12 pmol mg^−1 protein and 1.057 pmol mg^−1 protein, the Kd (GPCR22 [6]; single high affinity binding site) was 171 ± 39.8 nM and the “activation of intracellular signaling by guanosine” value (GPCR22 [7]; astrocytes with GPCR22 inhibited by siRNA, data not shown) was “abolish”. For the same compound, the “phosphorylation of Erk 1/2” value (GPCR22 [7]; guanosine 300 μM, astrocytes treated with si-RNA for GPCR22, FIG. 7a) was “inhibited”, the “phosphorylation of Akt” value (GPCR22 [7]; guanosine 300 μM, astrocytes treated with si-RNA for GPCR22, FIG. 7b) was “inhibited” and the “protection from actinomycine-induced apoptotic cell death (Caspase-3)” value [8] was “protected transfected S2 cells from apoptotic cell death”.
